{
  "source": "paper PMC8839081",
  "about": "(Molecules, 2022)",
  "key": {"[1]": {"system": "bloodstream Trypanosoma brucei brucei", "test": "Bioluminescent viability assay on bloodstream T. b. brucei (LUC cell line)", "assay_type": "cell-based", "details": "24 h; for viability at 10 µM: read-out: Viability at 10 µM (%), bloodstream T. b. brucei, 10 µM, 24 h", "experimental": "The anti-trypanosomal activity of compounds was evaluated against the bioluminescent cell line of the bloodstream stage of Trypanosoma brucei brucei (called LUC cell line) as previously described. Briefly, to a 96-well culture plate containing 2.2 μL/well DMSO (negative control) or compounds dissolved in DMSO (1% final concentration), 220 μL/well of a suspension of 1 × 10^5 parasites/mL was added. The plates were incubated at 37 °C and 5% CO2 for 24 h. Next, each well was transferred to a 96-well black plate and 20 μL of a solution containing D-Luciferin (1.5 mg/mL in PBS glucose 1% w/v) and Triton X-100 (0.05% vol/vol) was added. Bioluminescence signal was measured in a LUMIstar OPTIMA Microplate luminometer using the following settings: 10 s shaking, 5 s/well acquisition, 0.2 s measurement delay, maximum gain, and 37 °C. For the bioluminescence assay, parasite viability was calculated according to the following formula: Viability (%) = (BLcpd—BLblank)/ (Blneg—BLblank) × 100, where BL refers to the mean of bioluminescence signal corresponding to the tested compound (cpd), the blank (blank, complete media containing 1% v/v DMSO), or the negative control (neg, parasites treated with 1% v/v DMSO). EC50 values were determined from concentration-response curves fitted to a four-parameter sigmoid equation using the GraphPad Prism software (version 6.0). All errors are expressed as one SD."}, "[2]": {"system": "bloodstream Trypanosoma brucei brucei", "details": "read-out: EC50 (µM) against bloodstream T. b. brucei, same cell line and assay conditions, ref Benítez et al. 2020, cited from earlier work"}, "C6 glioma cells [3]": {"system": "C6 glioma cells", "test": "GDNF release by C6 cells (sandwich ELISA of culture medium)", "assay_type": "cell-based, Rat", "details": "48 h; for GDNF in the medium relative to negative control (GDNF/DMSO): initial screening, confluent C6 cells, 10 μM; for EC50: Rattus norvegicus, C6 glioma, read-out: EC50 of GDNF release; for maximum GDNF release relative to vehicle: dose-response assay, maximum at 10 µM", "experimental": "(§1) Cell culture: Rat C6 glioma cells were purchased from the American Type Culture Collection (CC-107) and maintained in Dulbecco’s Modified Eagle Medium (Life Technologies, Carlsbad, CA, USA; 10569) with 5% (v/v) fetal bovine serum (FBS, Atlanta Biologicals) and 100 U mL−1 of penicillin and streptomycin (Life Technologies). Cells were incubated at 37 °C with 5% CO2 humidified atmosphere. As a glioma cell line, C6 cells are highly susceptible to phenotypic drift, which can lead to varying expression levels of receptors and growth factors of interest. For such reason, all data presented here show a single representative experiment of many independent replicate trials.\nGDNF release experiments: Into a 96-well plate were added C6 cells at a density of 25,300 cells/well in full growth medium (see above). Cells were allowed to adhere for 24 h at 37 °C. Cells were then serum-starved with media containing 0.5% FBS (low serum) for an additional 24 h. Low-serum media was refreshed prior to starting the experiment. Compounds were added in 50 μL of low-serum media to obtain a final volume of 200 μL/well. Treatments were performed in quadruplicate. […] Experiments were terminated by removing the conditioned media from each well and storing them at −80 °C until analyzed. GDNF was detected using a standard sandwich-style ELISA kit purchased from Promega Corporation (Madison, WI, USA) following the manufacturer’s instructions. Briefly, monoclonal anti-GDNF antibodies were captured onto a 96-well Nunc Immulon Immunoassay plate at a dilution of 1:1000 in carbonate coating buffer (25 mM sodium bicarbonate, 25 mM sodium carbonate, pH 8.2) overnight at 4 °C. After removing the monoclonal antibody, wells were blocked with 1× block and sample buffer for 1 h at RT (200 μL/well). A GDNF standard curve was created by serially diluting the recombinant human GDNF standard in 1× block and sample buffer to a concentration range of 0−1000 pg mL^−1. To each sample well was added 100 μL of conditioned media from above and the standard curve (in duplicate), and plates were incubated for 6 h with shaking at RT. After washing five times with TBST (150 mM sodium chloride, 10 mM Tris·HCl, 10 mM Tris base, 0.05% Tween 20, pH 7.6), wells were incubated with antihuman polyclonal GDNF antibodies (1:500) in 1× block and sample buffer overnight at 4 °C. Following an additional five washes with TBST, wells were incubated with antichicken IgY-HRP conjugate antibody (1:250) for 2 h with light shaking. After a final five washes, TMB One (100 μL/well) was added to each well and allowed to develop in the absence of light until there were clear differences in color between the highest and lowest concentrations of the standard curve. Wells were then quenched with 1 M HCl (100 μL/well), and the plates were read at an absorbance wavelength of 450 nm using a BioTek Synergy H1 plate reader."}, "C6 glioma cells [4]": {"system": "C6 glioma cells", "test": "WST-1 cell viability assay on C6 cells", "assay_type": "cell-based, Rat", "details": "for IC50: Rattus norvegicus, 48 h exposure, read-out: IC50 of cell proliferation / cell viability (WST-1)", "experimental": "as §1\nWST-1 Cell Viability Assay: After compound treatment, conditioned media were removed and replaced with 75 μL of warm low-serum media. To each well was added 5 μL of WST-1 Cell Proliferation Reagent (Roche Applied Science, Penzberg, Germany), and the cells were incubated at 37 °C for no more than 1 h. Plates were briefly shaken prior to reading the absorbance at 450 nm. Treatments were compared to vehicle control."}, "C6 glioma cells [5]": {"system": "C6 glioma cells", "test": "LDH cytotoxicity (cell lysis) assay on C6 cells", "assay_type": "cell-based", "details": "48 h, dose-response 0.03 to 60 µM", "experimental": "as §1\nLDH Cytotoxicity Assay: The lactate dehydrogenase cytotoxicity assay (Promega) was performed following the manufacturer’s instructions. Briefly, following compound treatment, conditioned media were removed, and untreated wells were washed twice with phosphate buffered saline. To untreated wells was added 40 μL of low-serum media supplemented with lysis buffer provided in the kit (1:10), protease inhibitor cocktail (1:100), and phosphatase inhibitor cocktail 2 (1:100). Cells were lysed at 37 °C for 1 h. […] The wells were quenched with 50 μL of stop solution, and the plates were read at an absorbance wavelength of 490 nm."}, "[6]": {"details": "Trypanosoma brucei, read-out: EC50 (µM) against bloodstream T. b. brucei, 24 h, mean SD (n = 3)"}, "[7]": {"details": "read-out: EC50 (µM) against bloodstream T. b. brucei, mean SD (n = 3)"}, "[8]": {"details": "mean SD (n = 3), read-out: EC50 (µM) against bloodstream T. b. brucei"}, "[9]": {"details": "Trypanosoma brucei, mean SD (n = 3), read-out: EC50 (µM) against bloodstream T. b. brucei"}},
  "note": "Where “and” joins values, the source holds several entries; their conditions need not be identical. Identical values can stand only once. Like-named read-outs stand apart in the source and are kept apart here.",
  "data": [
    {"smiles": "CC1(C)OC2C3C=CC(C)(C2O1)N(CCc1c[nH]c2ccccc12)C3CO", "note": "[Compound 13, (1S, 3R, 4S, 5S, 6R)-N-(2-(3-indolyl)ethyl)-1-methyl-3-hydroxymethyl-5,6-isopropylidendioxy-2-azabicycle[2.2.2]-7-octene]", "values": [
      {"measurement": "viability at 10 µM", "setting": "[1]; Trypanosoma brucei", "result": 88, "unit": "%"}
    ]},
    {"smiles": "CC1CS(=O)(=O)CCN1/N=C/c1ccc([N+](=O)[O-])o1", "note": "(stereo not drawn) [Nifurtimox]", "values": [
      {"measurement": "EC50", "setting": "[2]", "result": 5.3, "unit": "µM"},
      {"measurement": "EC50", "setting": "[2]; listed as Nfx", "result": "5.31 ± 0.44", "unit": "µM"}
    ]},
    {"smiles": "CCC1CC2C=CC1N(CCc1c[nH]c3ccc(F)cc13)C2", "note": "(stereo not drawn) [XL-008, reference compound]", "values": [
      {"measurement": "EC50", "setting": "[1]; [6]", "result": 20, "unit": "µM"},
      {"measurement": "EC50", "setting": "[1]; [7]", "result": "19.5 ± 0.3", "unit": "µM"},
      {"measurement": "GDNF in the medium relative to negative control (GDNF/DMSO)", "setting": "C6 glioma cells [3]", "result": "~ 57 times"}
    ]},
    {"smiles": "CC1(C)OC2C3C=CC(C)(C2O1)N(CCc1c[nH]c2ccccc12)C3COC(=O)Cc1c[nH]c2ccccc12", "note": "[Compound 15, (1S, 3R, 4S, 5S, 6R)-N-(2-(3-indolyl)ethyl)-1-methyl-3-(2-(1H-3-indolyl)acetyloxy)methyl-5,6-isopropylidendioxy-2-azabicycle[2.2.2]-7-octene]", "values": [
      {"measurement": "EC50", "setting": "[1]; [8]", "result": "3.47 ± 0.02", "unit": "µM"},
      {"measurement": "EC50", "setting": "[1]; [9]", "result": 3.5, "unit": "µM"},
      {"measurement": "viability at 10 µM", "setting": "[1]; Trypanosoma brucei", "result": 0, "unit": "%"},
      {"measurement": "EC50", "setting": "C6 glioma cells [3]; dose-response 0.03 to 60 µM", "result": 6.79, "unit": "µM"},
      {"measurement": "maximum GDNF release relative to vehicle", "setting": "C6 glioma cells [3]", "result": 70, "unit": "times"},
      {"measurement": "GDNF in the medium relative to negative control (GDNF/DMSO)", "setting": "C6 glioma cells [3]", "result": "up to 60 times"},
      {"measurement": "IC50", "setting": "C6 glioma cells [4]", "result": 3.5, "unit": "µM"}
    ]},
    {"smiles": "CC1(C)OC2C3C=CC(C)(C2O1)N(CCc1c[nH]c2ccccc12)C3COCc1ccccc1", "note": "[Compound 14, (1S, 3R, 4S, 5S, 6R)-N-(2-(3-indolyl)ethyl)-1-methyl-3-benzyloximethyl-5,6-isopropylidendioxy-2-azabicycle[2.2.2]-7-octene]", "values": [
      {"measurement": "EC50", "setting": "[1]; [6]", "result": 1.3, "unit": "µM"},
      {"measurement": "viability at 10 µM", "setting": "[1]; Trypanosoma brucei", "result": "22 ± 12", "unit": "%"},
      {"measurement": "EC50", "setting": "[1]; [7]", "result": "1.27 ± 0.26", "unit": "µM"},
      {"measurement": "EC50", "setting": "C6 glioma cells [3]", "result": 20.1, "unit": "µM"},
      {"measurement": "maximum GDNF release relative to vehicle", "setting": "C6 glioma cells [3]", "result": 23, "unit": "times"},
      {"measurement": "GDNF in the medium relative to negative control (GDNF/DMSO)", "setting": "C6 glioma cells [3]", "result": "≤ 7", "unit": "times"},
      {"measurement": "lowest concentration with impairment in cell viability (WST-1)", "setting": "C6 glioma cells [4]; 48 h, dose-response", "result": "≥ 300", "unit": "nM"}
    ]},
    {"smiles": "COC(=O)C1C2C=CC(C)(C3OC(C)(C)OC23)N1CCc1c[nH]c2ccccc12", "note": "[Compound 7, (1S, 3S, 4S, 5S, 6R)-Methyl N-(2-(3-indolyl)ethyl)-1-methyl-5,6-isopropylidendioxy-2-azabicycle[2.2.2]-7-octenen-3-carboxylate]", "values": [
      {"measurement": "EC50", "setting": "[1]; [8]", "result": "31.5 ± 1.18", "unit": "µM"},
      {"measurement": "EC50", "setting": "[1]; [9]", "result": 31.5, "unit": "µM"},
      {"measurement": "Viability at 10 µM (%)", "setting": "[1]; bloodstream T. b. brucei, 10 µM", "result": "42 ± 14", "unit": "%"}
    ]},
    {"smiles": "COC(=O)C1C2C=CC(C)(C3OC(C)(C)OC23)N1CCc1c[nH]c2ccccc12", "note": "[Compound 6, (1S, 3R, 4S, 5R, 6S)-Methyl N-(2-(3-indolyl)ethyl)-1-methyl-5,6-isopropylidendioxy-2-azabicycle[2.2.2]-7-octenen-3-carboxylate]", "values": [
      {"measurement": "viability at 10 µM", "setting": "[1]; Trypanosoma brucei", "result": "24 ± 6", "unit": "%"},
      {"measurement": "EC50", "setting": "[1]; [7]", "result": "7.9 µM and 7.96 µM"},
      {"measurement": "concentrations with significant cell lysis / cell death (LDH)", "setting": "C6 glioma cells [5]", "result": 60, "unit": "µM"},
      {"measurement": "GDNF in the medium relative to negative control (GDNF/DMSO)", "setting": "C6 glioma cells [3]", "result": "up to 6 times"},
      {"measurement": "concentrations at which cell viability is impaired (WST-1)", "setting": "C6 glioma cells [4]; 48 h, dose-response 0.03 to 60 µM", "result": "≥ 10", "unit": "µM"}
    ]},
    {"smiles": "CC(C)C(C)(C)[Si](C)(C)OCC1C2C=CC(C)(C3OC(C)(C)OC23)N1CCc1c[nH]c2ccccc12", "note": "[Compound 11, (1S, 3R, 4S, 5S, 6R)-N-(2-(3-indolyl)ethyl)-1-methyl-3-(dimethyl(1,1,2-trimethylpropyl)silyloxy)methyl-5,6-isopropylidendioxy-2-azabicycle[2.2.2]-7-octene]", "values": [
      {"measurement": "EC50", "setting": "[1]; [8]", "result": "7.95 ± 0.34", "unit": "µM"},
      {"measurement": "EC50", "setting": "[1]; [9]", "result": 7.9, "unit": "µM"},
      {"measurement": "viability at 10 µM", "setting": "[1]; Trypanosoma brucei", "result": "37 ± 6", "unit": "%"},
      {"measurement": "EC50", "setting": "C6 glioma cells [3]; dose-response 0.03 to 60 µM", "result": 3.46, "unit": "µM"},
      {"measurement": "maximum GDNF release relative to vehicle", "setting": "C6 glioma cells [3]", "result": 9, "unit": "times"},
      {"measurement": "GDNF in the medium relative to negative control (GDNF/DMSO)", "setting": "C6 glioma cells [3]", "result": "≤ 15", "unit": "times"},
      {"measurement": "IC50", "setting": "C6 glioma cells [4]", "result": 17.7, "unit": "µM"}
    ]},
    {"smiles": "CC(C)C(C)(C)[Si](C)(C)OCC1NC2(C)C=CC1C1OC(C)(C)OC12", "note": "[Compound 10exo, (1S, 3R, 4S, 5R, 6S)-1-Methyl-3-(dimethyl(1,1,2-trimethylpropyl)silyloxy)methyl-5,6-isopropylidendioxy-2-azabicycle[2.2.2]-7-octene]", "values": [
      {"measurement": "viability at 10 µM", "setting": "[1]; Trypanosoma brucei", "result": "64 ± 2", "unit": "%"}
    ]}
  ]
}
